According to ChEMBL document CHEMBL1201862, “PubChem BioAssay data set” (2004):
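Compound exposure: 48 hours, 5 concentrations, 96-well plates. GI50 marks 50% less growth.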 Calls of active or inactive are those of the source. No stated cut-off is given here; in the data, active = GI50 up to about 1.1 µM and inactive = higher.

Legend:
Experiment in all cases: DTP human tumour cell line panel, 48 h
[1] = system: MDA-N
[2] = system: SF-539
[3] = system: SK-MEL-5
[4] = system: HCC 2998
[5] = system: MOLT-4
[6] = system: U-251
[7] = system: IGROV-1
[8] = system: Malme-3M
[9] = system: CAKI-1
[10] = system: M14
[11] = system: SF-268
[12] = system: SNB-19
[13] = system: HCT-15
[14] = system: A498
[15] = system: KM12
[16] = system: SK-OV-3
[17] = system: SW-620
[18] = system: TK-10
[19] = system: OVCAR-4

SMILES	GI50 [1]	GI50 [2]	GI50 [3]	GI50 [4]	GI50 [5]	GI50 [6]	GI50 [7]	GI50 [8]	GI50 [9]	GI50 [10]	GI50 [11]	GI50 [12]	GI50 [13] [µM]	GI50 [14]	GI50 [15]	GI50 [16]	GI50 [17]	GI50 [18]	GI50 [19]
Cc1cc2c(s1)C(N)CC2=O (stereo unspecified)	> 100 µM (inactive)	> 100 µM (inactive)	> 100 µM (inactive)	> 100 µM (inactive)	> 100 µM (inactive)	> 100 µM (inactive)	> 100 µM (inactive)	> 100 µM (inactive)	> 100 µM (inactive)	> 100 µM (inactive)	> 100 µM (inactive)	> 100 µM (inactive)	> 100	> 100 µM (inactive)	> 100 µM (inactive)	> 100 µM (inactive)	> 100 µM (inactive)	> 100 µM (inactive)	
O=C1CCc2cc([N+](=O)[O-])ccc2O1	> 100 µM (inactive)	> 100 µM (inactive)	> 100 µM (inactive)	> 100 µM (inactive)	> 100 µM (inactive)	> 100 µM (inactive)	> 100 µM (inactive)	> 100 µM (inactive)	> 100 µM (inactive)	> 100 µM (inactive)	> 100 µM (inactive)	> 100 µM (inactive)	> 100	> 100 µM (inactive)			> 100 µM (inactive)	> 100 µM (inactive)	> 100 µM (inactive)
Cc1sc2nc3n(c(=O)c2c1C)N=C(c1ccccc1)CS3	> 100 µM (inactive)	> 100 µM (inactive)	> 100 µM (inactive)	> 100 µM (inactive)	> 100 µM (inactive)	> 100 µM (inactive)	> 100 µM (inactive)	> 100 µM (inactive)	> 100 µM (inactive)		> 100 µM (inactive)		> 100	> 100 µM (inactive)	> 100 µM (inactive)	> 100 µM (inactive)	> 100 µM (inactive)	> 100 µM (inactive)	> 100 µM (inactive)
O=C(Cc1nc2ncccc2[nH]c1=O)c1c[nH]c2ccccc12	19.7 µM (inactive)	16.6 µM (inactive)	23.1 µM (inactive)	19.8 µM (inactive)	26.4 µM (inactive)	17.7 µM (inactive)	17.3 µM (inactive)	17.6 µM (inactive)	17.4 µM (inactive)	21 µM (inactive)	14.9 µM (inactive)	18.3 µM (inactive)	31.6	17.7 µM (inactive)	17.5 µM (inactive)	16.3 µM (inactive)	17.1 µM (inactive)	16.7 µM (inactive)	
CC(C)c1cccc(C(=O)NCCN(C)C)c1[N+](=O)[O-]	> 100 µM (inactive)	> 100 µM (inactive)	> 100 µM (inactive)	> 100 µM (inactive)	> 100 µM (inactive)	> 100 µM (inactive)	> 100 µM (inactive)	> 100 µM (inactive)	> 100 µM (inactive)	> 100 µM (inactive)	> 100 µM (inactive)	> 100 µM (inactive)	> 100	65.9 µM (inactive)	> 100 µM (inactive)	> 100 µM (inactive)	> 100 µM (inactive)	> 100 µM (inactive)	
Cc1cn(C2CC(N=[N+]=[N-])C(CO)O2)c(=O)n(CCCCBr)c1=O (stereo unspecified)	> 100 µM (inactive)	> 100 µM (inactive)		65.5 µM (inactive)	95.1 µM (inactive)	18.8 µM (inactive)	> 100 µM (inactive)	> 100 µM (inactive)	> 100 µM (inactive)	> 100 µM (inactive)	> 100 µM (inactive)	> 100 µM (inactive)	> 100	> 100 µM (inactive)	> 100 µM (inactive)	> 100 µM (inactive)	> 100 µM (inactive)	> 100 µM (inactive)	> 100 µM (inactive)
